Data on 1 molecule can be found in patent publication US9296687B2, “Modulators of HSP70/DnaK function and methods of use thereof” (The Trustees of the University of Pennsylvania, priority 2008, dated 2016).

The structures appear in SMILES notation.

The subject of one assay is E. coli. Briefly: Growth curves and morphology of E. coli at 35° C. or 43° C. Type of assay: cell-based. As for the experimental part:
FIG. 3. PES and E. coli. (A) Identification of DnaK as Biotin-PES (B-PES) interacting protein in bacteria by liquid chromatography-tandem mass spectrometry, as described herein below. (B) The amino acid sequence of DnaK (SEQ ID NO: 7); the residues detected by mass spectrometry are shown in bold and underlined. (C) Growth curves of E. coli treated with different concentrations of PES either at 35° C. or 43° C. […] (D) Bacterial morphology (phase contrast microscopy) following treatment of the cells with PES at the indicated temperatures. Note evidence of filamentation and aggregation at higher concentrations of PES, especially at 43° C.

The test system of a further assay is FADU cells. Briefly: Sulforhodamine B colorimetric assay, PES plus cisplatin. It counts as cell-based, human. To be noted: 0-100 μM, 1:1 ratio, 72 h. The protocol:
FIG. 20. PES and cisplatin act synergistically to kill cancer cells. […] Experiments were done in triplicate per condition.
Cells (2×10^4) were plated into 96 well plates in 200 μl media and allowed to attach overnight. Cells were then treated with the indicated doses of PES, cisplatin or PES+Cisplatin. After 72 hr incubation period, cells were washed in PBS and 100 μl of ice cold 10% TCA was added for 1 hr at 4° C. Plates were washed four times with slow-running tap water and air-dried at room temperature. 100 μl of 0.057% SRB solution was added to the cells and incubated for 30 min at room temperature. Fixed cells were quickly rinsed four times with 1% acetic acid to remove unbound dye. The protein-bound dye was solubilized using 200 μl of 10 mM Tris base solution (pH 10.5) per well, and the wells were spectrophotometrically quantified at an absorbance of 540 nm. This methodology is identical to that in Shekan et al, JNCI 82:1107 (1990).
(In SRB staining, fixed cells bind dye roughly in proportion to their protein.)

The next assay deals with FaDu tumor xenografts. Briefly: FaDu xenograft, western blot of tumor lysates for p62/SQSTM1 and LC3. It counts as in vivo, nude mice. Particulars: 40 mg/kg intratumoral. For orientation: In western blotting, separated proteins are transferred to a membrane and probed.
Assay [1] has as its target HSP70 (Homo sapiens, UniProt P0DMV8). Briefly: Immunoprecipitation-western blot of HSP70 complexes with co-chaperones and substrate proteins. Also on record: endogenous in cells; host or cells: human tumor cell lines (A875, BX-U2OS, U2OS, H1299, MiaPaCa2, HepG2, SKBR3, 293T). Type of assay: cell-based.
Another assay relates to caspase-3, caspase-8. As to the kind of experiment: Western blot for caspase cleavage. Type of assay: cell-based, human.
For assay [2], the system named is HSP70. As to the kind of experiment: Capture of HA-tagged HSP70 constructs from transfected H1299 cells with biotinylated compound. Type of assay: binding, human. To be noted: biotinylated PES. The protocol: FIG. 1. PES Binds to HSP70. (A) Whole cell extracts (WCE) prepared from A875 and BCL-xL over-expressing U2OS human osteosarcoma cells (BX-U2OS) cells, treated with Biotin or Biotin-PES (B-PES), were captured using NeutrAvidin agarose resins. HSP70-family proteins were identified as the major product in the excised band of ˜70 kDa shown in both Coomassie gels. (B and C) WCE were prepared from the cell lines indicated following 24 h treatment with 20 μM Biotin or B-PES and examined for the expression of proteins indicated (left panel of B and C) by western blot analysis; note that different exposure times were used to visualize these proteins. […] (D) In vitro evidence for an interaction between B-PES and HSP70. Full-length human HSP70 and human HSP90 proteins were in vitro translated in the presence of ^35S-methionine, mixed with B-PES coupled to NeutrAvidin resins, and eluted using 100 mM DTT. […] (F) Non-transformed human IMR90 fibroblasts or H1299 lung carcinoma cells were treated with the indicated concentrations of PES for 24 h and cell viability was determined by MTT assays. […]
The free amide group of PES-Cl was biotinylated and added to HA-tagged HSP70-transfected H1299 cells. […] The complexes were pulled down with NeutrAvidin beads, eluted with 100 mM DTT treatments, separated with SDS-PAGE and detected with anti-HA antibody (Millipore) by Western blot. […]

HSP70 (Homo sapiens, UniProt P0DMV8), sequence (P0DMV8 whole entry): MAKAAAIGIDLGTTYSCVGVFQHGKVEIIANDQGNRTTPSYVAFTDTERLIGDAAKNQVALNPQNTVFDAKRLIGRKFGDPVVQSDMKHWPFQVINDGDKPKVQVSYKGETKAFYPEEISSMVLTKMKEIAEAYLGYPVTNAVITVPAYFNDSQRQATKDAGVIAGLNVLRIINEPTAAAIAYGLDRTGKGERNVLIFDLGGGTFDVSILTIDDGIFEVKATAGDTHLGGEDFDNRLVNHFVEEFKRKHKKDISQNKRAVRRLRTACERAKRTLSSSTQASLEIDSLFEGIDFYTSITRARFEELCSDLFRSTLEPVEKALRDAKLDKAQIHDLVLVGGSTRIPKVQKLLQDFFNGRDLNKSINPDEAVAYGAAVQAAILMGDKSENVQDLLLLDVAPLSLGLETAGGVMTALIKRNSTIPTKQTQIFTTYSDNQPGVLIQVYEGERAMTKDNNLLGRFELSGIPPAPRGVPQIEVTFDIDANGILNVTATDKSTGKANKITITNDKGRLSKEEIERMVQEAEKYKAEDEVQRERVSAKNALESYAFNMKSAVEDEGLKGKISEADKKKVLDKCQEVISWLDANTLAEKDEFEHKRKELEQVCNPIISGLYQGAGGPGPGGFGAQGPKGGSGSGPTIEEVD

For `NS(=O)(=O)C#Cc1ccccc1` [PES, 2-Phenylethynesulfonamide], the “response of the bacteria to elevated temperatures” value in the assay with E. coli was “slow growth, filamentation, and reduced viability”. In addition, the “cell proliferation of E. coli” value in the assay on E. coli (increasing concentrations, 35° C. or 43° C.) is reported as “inhibited in a dose-dependent fashion”. Besides, in the assay on FADU cells, the “combination effect with cisplatin” value is on record as “acts synergistically with cisplatin”. For the same molecule, the “LC3 in detergent-insoluble tumor fractions” value in the assay on FaDu tumor xenografts is “accumulated LC3 in the detergent-insoluble fractions”. For the same molecule, the “p62/SQSTM1 abundance and oligomerization in tumor” value with FaDu tumor xenografts (24 and 48 hr) is “increased p62/SQSMT1 abundance and oligomerization”. Further, on HSP70 [1], the “abundance of HSP70/BAG-1S complex” value is on record as “no detectable change” and the “abundance of HSP70/HSP90 complexes” value is listed as “no change in the abundance of HSP70/HSP90 complexes”. Moreover, the “HSP70 in association with CHIP, HSP40 and APAF1” value at HSP70 [1] (20 μM, 24 h) is “less HSP70 in association with CHIP, HSP40 and APAF1”. Besides, the “HSP70 interaction with viral T antigen” value at HSP70 [1] (293 cells with SV40 T antigen, 20 μM) was “interfered with HSP70 and viral T antigen interactions”. Further, on HSP70 [1] (A875, MiaPaCa2, 20 μM, 24 h), the “LAMP2 in a complex with HSP70” value is “significantly reduced the amount of LAMP2 in a complex with HSP70”. For the same molecule, at HSP70 [1] (A875 and HepG2 cells, PES 20 μM, with or without cisplatin 50 μM), the “complexes containing p53 and BAK or HSP70” value is “not observed”. For the same molecule, the “interaction between HSP70 and BAG-1M” value at HSP70 [1] (H1299, U2OS) is given as “clear decrease”. At HSP70 [1] (H1299 cells), the “HSP70 interaction with integrin α5 and integrin β1” value is “reduced HSP70 and integrin α5 and integin β1 interactions”. The “interaction between monomeric p62/SQSTM1 and HSP70” value on HSP70 [1] (MiaPaCa2, A875) is reported as “attenuated the interaction”. Besides, in the assay on caspase-3, caspase-8 (PES 20 μM alone), the “cleavage of caspase-3, caspase-8 or PARP” value is recorded as “not accompanied by cleavage of caspase-3, caspase-8, or PARP”. In addition, the “caspase-cleavage products after cisplatin” value with caspase-3, caspase-8 (co-treatment with cisplatin) is on record as “effectively inhibited the appearance of these caspase-cleavage products”. The “binding to HSP70 mutants L558R and Y611S” value in the assay on HSP70 [2] is given as “failed to bind PES”.
